# Results taken from patent US11083708B2, “Pharmacological restoration of epithelial or endothelial barrier integrity by agents blocking EPAC/RAP1 signaling” (The Regents of the University of California, priority 2018, dated 2021).
# “Also recorded” adds a separate entry of the source.
# Columns and labels:
# ET-induced footpad edema = experiment: Mouse footpad edema assay: ET injected into the footpad after systemic drug pre-treatment; format: in vivo, BALB/cJ mice; settings: for Inhibition of ET-induced footpad swelling (edema): i.p. pre-treatment 2-3 h before ET 0.15 pg/20 pl, ESI-09, AG1024, H89 10 mg/kg, SecinH3 250 ul of 2.5 mM, also 2 h post toxin, edema at 8-10 h or 18-24 h
# From the text: To verify these conclusions in vivo, a footpad swelling assay was turned to in which intra-dermal injection of ET results in robust quantifiable edema. […] The question of which branch(es) of the cAMP pathway contributed to EF-mediated edema was examined by comparing the relative abilities of H89 and ESI-09 to block ET-induced footpad swelling. […] It was concluded that the Epac/Rap1 pathway is the primary mediator of EF-induced edema. In addition, the effect of AG1024 [47], an inhibitor of insulin-like growth factor receptor (IGF-1R), was tested. […] These findings, together with the results described above provide a framework for how effector pathways contribute to cAMP-mediated disruption of Rab11-dependent membrane trafficking (See FIG. 6 for summary diagram).
# BALB/cJ mice (8-10 weeks old, female; Jackson Laboratories, Bar Harbor, Me.) were intraperitoneally injected with drugs. SecinH3 (TOCRIS #2849), AG1024 (Selleckchem, S1234), ESI-09 (TOCRIS #4773) or H89 (TOCRIS #2910), or with vehicle (70% DMSO in isotonic glucose for SecinH3, 30% DMSO in isotonic glucose for other drugs) 2-3 h prior to injection of ET (0.15 pg/20 pl, right footpad) or PBS (20 pl, left footpad), and in the case of SecinH3, also 2 h post toxin injection. ESI-09, AG1024 and H89 were administered at 10 mg/kg and SecinH3 was administered as 250 ul and 2.5 mM solution. Edema was assessed at 8-10 h, or 18-24 h by dorsal/plantar measurements using digital calipers.
# HBMECs = experiment: ET (EF+PA) intoxication of HBMEC cultures with drug co-treatment; anti-pan-cadherin stain of adherens junctions, Sec15-GFP punctae; format: cell-based, human; settings: EF and PA 0.2 pg/ml-0.4 pg/ml, co-treatment 24 hrs, Slit2 10 pg/ml, ESI-09 100 pM, H89 10 pM
# Method: The relative contributions of the Arf6, Epac, and PKA pathways to EF-induced inhibition of Rab11 was next examined, making use of HBMEC cultures. […] To inhibit the Arf6 pathway, cells were treated with Slit2, a secreted peptide that activates the Robo4 receptor to promote vascular stability via stimulation of the ArfGAP GIT [27]. […] Next, to determine the relative contribution of each branch of the cAMP pathway, EF-intoxicated cells were co-treated with ESI-09, an inhibitor specific for Epac, or with H89, a well-characterized inhibitor of PKA[45]. […] It was concluded that Epac/Rap1 is the predominant pathway mediating the cAMP induced effects of ET on exocyst-dependent junctional traffic in this setting.
# HBMEC cultures were maintained in DMEM (Corning; Manassas, Va.) containing 10% FBS, 1% Penicillin/streptomycin, 2 mM L-glutamine and were incubated in 37° C., 5% CO2 atmosphere. Cells were gently dislodged with 0.05% trypsin (Mediatech Inc.) and cultured on glass poly-D-lysine coated chamber slides (BD Falcon #354108). At about 80% confluence, EF and PA (0.2 pg/ml-0.4 pg/ml) were added to cells. […] After 24 hrs (FIGS. 5A-5H), cells were fixed for 10 mins at −20° C. in 100% Methanol, then washed with 0.1% Triton in PBS, Sec15GFP fluorescence was inspected directly, while Methanol-fixed cells were stained with a mouse anti pan-Cadherin antibody (Abcam, clone CH-19, 1/100). […]
SMILES,Inhibition of ET-induced footpad swelling (edema) (ET-induced footpad edema),ET-induced edema in animals in which systemic pre-treatment induced observable symptoms of malaise (ET-induced footpad edema; SecinH3-pretreated mice showing malaise),"Tolerability of systemic pre-treatment with the drug (ET-induced footpad edema; SecinH3 i.p., 250 ul of 2.5 mM solution, some animals)",Rescue of junctional pan-cadherin accumulation / adherens junctions (AJs) compromised by EF/ET (HBMECs),"Reversal of ET footpad swelling at both early (8 h) and late (18 h) times (ET-induced footpad edema; injected systemically in mice, 8 h and 18 h)"
CC(C)(C)c1cc(C=C(C#N)C#N)cc(Br)c1O [AG1024],"significant reduction of edema; also recorded: can be suppressed; also recorded: Strong, although less persistent, suppression of footpad swelling",–,–,–,–
COc1nc(-c2ccc3c(c2)OCO3)n(-c2ccc(NC(=O)CSc3ccccc3)cc2)n1 [SecinH3],strongly inhibited; also recorded: blocked EF-induced edema; also recorded: can be suppressed,virtually abolished,observable symptoms of malaise,–,–
O=S(=O)(NCCNC/C=C/c1ccc(Br)cc1)c1cccc2cnccc12 [H89],little or no effect,–,–,no detectable rescue; also recorded: does not appreciably rescue junctional cadherin expression,–
CC(C)(C)c1cc(C(=O)/C(C#N)=N/Nc2cccc(Cl)c2)no1 [ESI-09],absolute inhibition of edema; also recorded: strong inhibition of footpad swelling; also recorded: can be suppressed,–,–,partially restore normal junctional traffic and visible AJs; also recorded: partially rescues pan-cadherin expression at AJs; also recorded: partially restore junctional barrier integrity,can reverse the footpad swelling
